Laboratory results from patent publication KR20240014570A, “양전하성 응집-유도 방출 화합물 및 이의 용도” (priority 2020, dated 2022).

How the values were obtained:
[1] = test system: Gram-negative bacteria (그람음성균): E.coli, ESBL-EC; assay type: cell-based; conditions: 1 μM; white light 25 mW/cm2, 10 min
[2] = test system: ESBL E.coli (ESBL-EC, 그람 음성, ATCC BAA-198); assay: microbe, parasite or virus in culture; conditions: Escherichia coli, ATCCBAA198, 10 min, read-out: inhibition of ESBL-EC growth
[3] = test system: ESBL E.coli (ESBL-EC, 그람 음성, ATCC BAA-198); conditions: same conditions: 3 μM, white light 25 mW/cm2, 10 min
[4] = test system: S.aureus (그람양성, ATCC 25923); assay: Photodynamic antibacterial effect, agar plate colonies; assay type: cell-based; conditions: 1 μM; white light 25 mW/cm2, 10 min
[5] = test system: all strains (모든 균주); assay: Photodynamic antibacterial effect, all strains; assay type: cell-based; conditions: 3 μM, with or without white light

Row | Compound | photodynamic antibacterial effect against Gram-negative bacteria [1] | inhibition at 3 µM [2] [%] | photodynamic antibacterial effect [3] | photodynamic antibacterial activity against Gram-positive bacteria [4] | bacterial colonies [5]
1 | CN(C)c1ccc2nc3ccc(=[N+](C)C)cc-3sc2c1 [MB, 메틸렌 블루] | 유의한 효과를 확인할 수 없었다 | ~50 | 유의한 광역학적 항균 효과를 나타내지 않았고 | 광역학적 항균 활성을 보였지만 | –
2 | C=Cc1c(C)c2cc3nc(c(CC(=O)O)c4[nH]c(cc5nc(cc1[nH]2)C(C)=C5CC)c(C)c4C(=O)O)C(CCC(=O)O)C3C (stereo not shown) [Ce6] | 유의한 효과를 확인할 수 없었다 | – | – | 광역학적 항균 활성을 보였지만 | –
3 | C(=Cc1ccnc2ccccc12)c1ccc(-c2ccc(N(c3ccccc3)c3ccccc3)cc2)s1 [DQVTA] | – | – | – | – | 변하지 않음
